Patent US20100093760A1, “METHODS FOR IDENTIFYING COMPOUNDS THAT MODULATE CELL SIGNALING AND METHODS EMPLOYING SUCH COMPOUNDS” (The General Hospital Corporation, priority 2006, published 2010)
Entries after “also recorded” stand apart in the source; their conditions may differ.

Legend:
[1] = system: TGF-β1-mediated activation of SMAD2; assay: TGF-β1-mediated SMAD2 phosphorylation in PASMCs; format: cell-based, murine
Experimental: Wild-type and BMPR-II-deficient PASMC were isolated as previously described (Yu et al., J. Biol. Chem. 280:24443-24450, 2005), and cultured in RPMI medium (Invitrogen) supplemented with 10% FBS. C2C12 cells (American Type Culture Collection, Manassas, Va.) were cultured in DMEM supplemented with glutamine and 10% FBS. HepG2 cells and Hep3B cells (ATCC) were cultured in Minimal Essential Alpha Medium with L-glutamine (α-MEM, Invitrogen) containing 10% FBS. For studies of SMAD activation in vitro, PASMC were incubated in 0.5% FCS RPMI for 24 hours, followed by preincubation with drug compounds, noggin, or vehicle for 30 minutes, followed the addition of recombinant BMPs 2, 4, 6, or 7, or TGF-β1 or Activin A (R&D Systems, Minneapolis, Minn.) for 30 minutes.
Cell extracts or tissues were mechanically homogenized in SDS-lysis buffer (62.5 mM Tris-HCl (pH 6.8), 2% SDS, 10% glycerol, 50 mM DTT, 0.01% bromophenol blue); separated by SDS-PAGE; immunoblotted with anti-phospho-SMAD1/5/8, anti-phospho-SMAD2 (Cell Signaling, Beverly, Mass.), or anti-α-tubulin (Upstate/Millipore, Billerica, Mass.) Abs; and visualized using ECL Plus (GE Healthcare, Piscataway, N.J.). Levels of immunoreactive proteins were quantitated by ImageQuant software on a Storm phosphorimager (GE Healthcare).

[2] = system: hepatic SMAD1/5/8 phosphorylation; assay: Iron-dextran challenge: hepatic SMAD1/5/8 phosphorylation in mice; format: in vivo, C57BL/6 mice; settings: 10 mg/kg co-injected with iron-dextran, intravenous, 1 hour
MAPK p38 = assay: Immunoblot of BMP4-mediated MAPK p38 phosphorylation in PASMCs; format: cell-based, murine; settings: BMP4 20 ng/ml, 0.2-40 μM
[3] = system: BMP signaling pathway (activation of SMAD1/5/8 by BMP4); assay: Cellular ELISA of BMP4-mediated SMAD1/5/8 activation; format: cell-based
Experimental: In one example, the cell-based assay of the invention is an enzyme linked immunosorbent assay (ELISA) in which activation of SMAD proteins (SMAD2 or SMAD1/5/8) is measured. […] As discussed above, SMAD proteins are phosphorylated by heteromeric complexes of type I and type II BMP or TGF-β serine-threonine kinase receptors when engaged by ligands. The principal effects of these ligands are generally attributable to gene transcription from the activation of specific SMADs. Phosphorylated SMADs can be detected in whole cell extracts using commercially available anti-phospho-protein antibodies with high specificity by Western blotting (Yu et al., J. Biol. Chem. 280:24443-24450, 2005).
In an improved method provided by the invention, phosphorylated SMADs are detected in whole cells with high sensitivity and specificity by immobilizing and rendering the phospho-SMAD antigens accessible to antibody. Traditional fixation with 1% to 8% paraformaldehyde solution followed by permeabilization with methanol, or a solution of dilute detergent such as Triton-X100, yields unacceptable results, with the signal being only 1.2 to 1.3 times the background, if it is detected at all (while Western blot these signal-to-noise ratios would be 10 to 20). […]

zebrafish embryos = format: in vivo
Experimental: According to one example of the whole animal-based screening methods of the invention, 1-2 hour old zebrafish embryos are arrayed in the wells of 96-well plates, three embryos per well. A chemical library, which is comprised of tens of thousands of diverse small molecules, is then pin-transferred into the wells at a final concentration of ˜2 to 10 uM. Embryos are observed over the course of next 24-48 hours and scored under a dissecting microscope for phenotype consistent with loss of BMP signaling (dorsalized embryos, FIG. 1) or with the loss of nodal signaling (cyclopia, FIG. 2).
Small molecule screening in zebrafish was performed as previously described (Peterson et al., Nat. Biotechnol. 22:595-599, 2004) with several modifications. Pairs of wild-type zebrafish were mated, and newly-fertilized eggs were arrayed in triplicate in 96-well plates containing E3 buffer. At 4 hours post fertilization (hpf), compounds were added to wells at 5-10 μM. Embryos were incubated at 28.5° C., and gross morphology of embryos was examined at 12, 24, and 48 hpf for dorsalization or ventralization of embryonic axis, as previously described (Mullins et al., Development 123:81-93, 1996). In total, 7,570 compounds were screened, including synthetic screening compounds (Chembridge Corporation, 5,580 small molecules) and known bioactive compounds (Microsource Discovery Systems, 1,840 small molecules and Sigma-Aldrich, 150 small molecules). For follow up studies, Compound C/Dorsomorphin and Ara-A (adenine 9-β-D-arabinofurano-side) were purchased from Sigma (St. Louis, Mo.), and C75 was purchased from EMD Biosciences (San Diego, Calif.).

AMP kinase = settings: Zhou et al. 2001; cited from earlier work
[4] = 10 μM, continuous exposure from 8 hpf, scored at 48 hpf

c1cc(-c2cnn3cc(-c4ccc(OCCN5CCCCC5)cc4)cnc23)ccn1 [Compound C/Dorsomorphin]
effect on the TGF-β signaling pathway ([1]; FIG. 7): does not affect | effect on TGF-β1-mediated activation of SMAD2 ([1]; PASMCs, TGF-β1 0.5 ng/ml, 0.1-20 μM, 30 minutes): did not inhibit | effect on iron-mediated increase in hepatic SMAD1/5/8 phosphorylation [2]: abolished; also recorded: did not exhibit an increase | effect on BMP4-mediated phosphorylation of MAPK p38 (MAPK p38): without affecting MAPK p38 activation; also recorded: without inhibiting p38 activation; also recorded: did not affect; also recorded: does not exhibit significant inhibition | Preference for BMP-mediated SMAD1/5/8 over TGF-β-mediated SMAD2 phosphorylation ([3]; FIG. 4): potently and preferentially inhibited; also recorded: preferentially inhibits | IC50 ([3]; FIG. 4, read-out: IC50, inhibition of activation of the BMP signaling pathway (SMAD1/5/8 by BMP4)): < 0.2 µM | Moderate % (zebrafish embryos; [4]): 0% | Normal % (zebrafish embryos; [4]): 15% | Severe % (zebrafish embryos; 10 μM, interval exposure 2-4 hpf, scored at 48 hpf): 0% | Moderate dorsalization, number of embryos (zebrafish embryos; 10 μM, interval exposure 4-8 hpf, scored at 48 hpf): 8 | Moderate-Severe, number of embryos (zebrafish embryos; DM 2 μM from 3 hpf, scored at 48 hpf): 0 | dorsalization phenotype (zebrafish embryos; ≧5 μM at ≦8 hpf): phenocopied with high penetrance the spectrum of dorsalization defects | IC50 (AMP kinase): 15 to 30 µM
